# In patent US7402606B2, “Derivatives of 1-(oxoaminoacetyl) pentylcarbamate as cathepsin K inhibitors for the treatment of bone loss” (SmithKline Beecham Corporation, priority 2002, dated 2008):
# Target: T1, human cathepsin K (Homo sapiens, UniProt P43235)
# T1 construct: The proform of cathepsin K was converted to mature cathepsin K by brief exposure to pH 4; made in house; host or cells: baculovirus; Trichoplusia ni High Five cells (virus raised in Sf-9)
# T1 sequence (P43235 115-329): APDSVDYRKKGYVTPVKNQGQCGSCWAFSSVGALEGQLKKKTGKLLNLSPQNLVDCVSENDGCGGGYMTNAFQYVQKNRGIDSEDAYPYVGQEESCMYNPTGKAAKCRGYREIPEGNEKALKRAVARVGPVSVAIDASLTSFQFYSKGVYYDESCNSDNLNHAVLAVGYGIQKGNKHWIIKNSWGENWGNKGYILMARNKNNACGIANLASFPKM
# Assay: Cathepsin K inhibition assay, human recombinant enzyme, fluorogenic substrate Cbz-Phe-Arg-AMC
# Assay type: biochemical
# Details: Table 1, human cathepsin K; read-out: h Cat K IC50
# Method: All assays for cathepsin K were carried out with human and rat recombinant enzyme. Assays for cathepsins S ? V were also carried out with human recombinant enzyme. Assays for human cathepsins B, H, and L were carried out with enzyme, purchased from Athens Research and Technology, Inc., prepared from human liver tissue. […] A stock substrate solution of Cbz-Phe-Arg-AMC was prepared at a concentration of 50 mM in dimethyl sulfoxide. This substrate was diluted into the assay for a final substrate concentration of 10 μM in the rat cathepsin K, human cathepsin K, and human cathepsin B assays; a final substrate concentration of 5 μM in the human cathepsin L assay; and a final substrate concentration of 2 μM in the human cathepsin V assay.
# All assays contained 10% dimethyl sulfoxide. […] All assays were conducted at 30° C. Product fluorescence (excitation at 360 nm; emission at 440 nm, (except cathepsin H which used excitation at 340 nm; emission at 420 nm)) was monitored with a PerSeptive Biosystems Cytofluor II fluorescence plate reader. Product progress curves were generated over 2.3 h monitoring the formation of 7-amino-4-methylcoumarin product (or β-naphthalamide for cathepsin H).
# Human and rat Cathepsin K:
# Two liters of Spodoptera frugiperda (Sf-9) cells (ATCC) were grown in Grace's Supplemented medium (Life Technologies) supplemented with 2 g/L glucose, 10% fetal bovine serum (HyClone) and 0.1% pluronic F-68 (Life Technologies). […] The cells continued to grow for 72 h post-infection, before the virus was harvested by centrifugation at 1400×g for 30 min.
# One and one-half liters of Trichoplusia ni (T. ni) High Five (™) cells [JRH Biosciences, Woodland, Calif. […] The cells were grown for 24 h at 28° C., 50 RPM, and 50% dissolved oxygen. […] Media were separated from cells at a rate of 1 L/min using the Centritech 100 ™ continuous-flow centrifuge (DuPont) operating at 200×g.
# Protein Purification: Media (human and rat) were filtered through a Whatman 3 filter, and then loaded onto a 25 mL. Poros HS II (26 mm×47 mm) cation exchange column equilibrated in 25 mM sodium acetate at pH 5.5 (equilibration buffer). The column was washed until the absorbance reached the baseline value, and then the protein was eluted with a linear gradient from 0-2 M sodium chloride in the equilibration buffer. Column fractions were analyzed by SDS-PAGE, N-terminal sequencing, and mass spectrometry. Fractions containing the proform of cathepsin K were pooled and frozen at −80° C. The proform was concentrated in an Amicon Centriprep 10 and fractionated with a Superdex 75 column (26 mm×600 mm, Pharmacia) equilibrated in 400 mM sodium chloride, 25 mM sodium acetate at pH 5.5.
# Cathepsin K Activation: The proform of cathepsin K was converted to mature cathepsin K by brief exposure to pH 4 in the presence of 5 mM L-cysteine. Typically, 5 mM L-cysteine was added to 10 mL of approximately 1 mg/mL procathepsin K. One mL of this solution was diluted ten-fold into 450 mM sodium acetate at pH 4.0 containing 5 mM L-cysteine. This solution was reacted at 23° C. for 2 min before neutralization with 2 mL, 1.8 M sodium acetate at pH 6.0. The neutralized sample was added to the remaining 9 mL of procathepsin K. The mixture was incubated at 4° C. for 2-3 days. The activated cathepsin K was chromatographed on a Poros HS II column as described above.
# Potential inhibitors were evaluated using the progress curve method. Assays were carried out in the presence of variable concentrations of test compound. Reactions were initiated by addition of buffered solutions of inhibitor and substrate to enzyme. Data analysis was conducted according to one of two procedures depending on the appearance of the progress curves in the presence of inhibitors. […] Ki values were calculated from IC50 values using equation 2 assuming a competitive model.
row,Structure (SMILES),IC50
1,"CCCC[C@H](NC(=O)O[C@@H]1CN(C(=O)Cc2cccc(Oc3ccccc3)c2)CC1(C)C)C(=O)C(=O)N[C@H](C)c1ccccc1 [Example 23, (3S)-4,4-Dimethyl-1-[(3-phenoxyphenyl)acetyl]pyrrolidinyl (1S)-1-(oxo{[(1R)-1-phenylethyl]amino}acetyl)pentylcarbamate]",10 to 100 nM
2,"CCCC[C@H](NC(=O)O[C@@H]1CN(C(=O)Nc2ccc(C#N)cc2)CC1(C)C)C(=O)C(=O)N[C@H](C)c1ccccc1 [Example 69, (3S)-1-[(4-Cyanoanilino)carbonyl]-4,4-dimethylpyrrolidinyl (1S)-1-(oxo{[(1R)-1-phenylethyl]amino}acetyl)pentylcarbamate]",10 to 100 nM
3,"CCCC[C@H](NC(=O)OC1C(=O)OC[C@]1(C)CC)C(=O)C(=O)N[C@H](C)c1ccccc1 (stereo partly drawn) [Example 3, (4S)-4-ethyl-4-methyl-2-oxotetrahydro-3-furanyl (1S)-1-(oxo{[(1R)-1-phenylethyl]amino}acetyl)pentylcarbamate]",1 to 10 nM
4,"CCCC[C@H](NC(=O)O[C@@H]1CN(C(=O)Oc2cccc(Oc3ccccc3)c2)CC1(C)C)C(=O)C(=O)N[C@H](C)c1ccccc1 [Example 59, 3-Phenoxyphenyl (4S)-3,3-dimethyl-4-[({[(1S)-1-(oxo{[(1R)-1-phenylethyl]amino}acetyl)pentyl]amino}carbonyl)oxy]-1-pyrrolidinecarboxylate]",10 to 100 nM
5,"CCCC[C@H](NC(=O)O[C@@H]1CN(C(=O)CCCc2ccccc2)CC1(C)C)C(=O)C(=O)N[C@H](C)c1ccccc1 [Example 24, (3S)-4,4-Dimethyl-1-(4-phenylbutanoyl)pyrrolidinyl (1S)-1-(oxo {[(1R)-1-phenylethyl]amino}acetyl)pentylcarbamate]",10 to 100 nM
6,"CCCC[C@H](NC(=O)O[C@@H]1CN(C(=O)Cc2cc(C)no2)CC1(C)C)C(=O)C(=O)N[C@H](C)c1ccccc1 [Example 35, (3S)-4,4-Dimethyl-1-[(3-methyl-5-isoxazolyl)acetyl]pyrrolidinyl (1S)-1-(oxo{[(1R)-1-phenylethyl]amino}acetyl)pentylcarbamate]",1 to 10 nM
7,CCCC[C@H](NC(=O)O[C@@H]1CN(C(=O)c2ccccc2)CC1(C)C)C(=O)C(=O)N[C@H](C)c1ccccc1 [Example 9],10 to 100 nM
8,"CCCC[C@H](NC(=O)O[C@@H]1CN(C(=O)Oc2ccc(Oc3ccccc3)cc2)CC1(C)C)C(=O)C(=O)N[C@H](C)c1ccccc1 [Example 58, 4-Phenoxyphenyl (4S)-3,3-dimethyl-4-[({[(1S)-1-(oxo{[(1R)-1-phenylethyl]amino}acetyl)pentyl]amino}carbonyl)oxy]-1-pyrrolidinecarboxylate]",10 to 100 nM
9,"CCCC[C@H](NC(=O)O[C@@H]1CN(C(=O)Cc2ccccc2)CC1(C)C)C(=O)C(=O)N[C@H](C)c1ccccc1 [Example 11, (3S)-4,4-Dimethyl-1-(phenylacetyl)pyrrolidinyl (1S)-1-(oxo{[(1R)-1-phenylethyl]amino}acetyl)pentylcarbamate]",1 to 10 nM
10,"CCCC[C@H](NC(=O)O[C@@H]1CN(C(=O)c2cnc3ccccc3c2)CC1(C)C)C(=O)C(=O)N[C@H](C)c1ccccc1 [Example 29, (3S)-4,4-Dimethyl-(3-quinolinylcarbonyl)pyrrolidinyl 1-(oxo{[(1R)-1-phenylethyl]amino}acetyl)pentylcarbamate]",10 to 100 nM

# More lines, now with the values ahead:
row,IC50,Structure (SMILES)
1,10 to 100 nM,"CCCC[C@H](NC(=O)O[C@@H]1CN(C(=O)c2nc[nH]n2)CC1(C)C)C(=O)C(=O)N[C@H](C)c1ccccc1 [Example 34, (3S)-4,4-Dimethyl-1-(1H-1,2,4-triazol-3-ylcarbonyl)pyrrolidinyl (1S)-1-(oxo{[(1R)-1-phenylethyl]amino}acetyl)pentylcarbamate]"
2,1 to 10 nM,"CCCC[C@H](NC(=O)O[C@@H]1CN(S(=O)(=O)c2ccccc2)CC1(C)C)C(=O)C(=O)N[C@H](C)c1ccccc1 [Example 77, (3S)-4,4-Dimethyl-1-(phenylsulfonyl)pyrrolidinyl (1S)-1-(oxo{[(1R)-1-phenylethyl]amino}acetyl)pentylcarbamate]"
3,10 to 100 nM,"CCCC[C@H](NC(=O)O[C@@H]1CN(C(=O)OCc2ccsc2)CC1(C)C)C(=O)C(=O)N[C@H](C)c1ccccc1 [Example 42, 3-Thienylmethyl (4S)-3,3-dimethyl-4-[({[(1S)-1-(oxo {[(1R)-1-phenylethyl]amino}acetyl)pentyl]amino}carbonyl)oxy]-1-pyrrolidinecarboxylate]"
4,1 to 10 nM,"CCCC[C@H](NC(=O)O[C@@H]1CN(C(=O)OCCc2scnc2C)CC1(C)C)C(=O)C(=O)N[C@H](C)c1ccccc1 [Example 51, 2-(4-Methyl-1,3-thiazol-5-yl)ethyl (4S)-3,3-dimethyl-4-[({[(1S)-1-(oxo {[(1R)-1-phenylethyl]amino}acetyl)pentyl]amino}carbonyl)oxy]-1-pyrrolidinecarboxylate]"
5,1 to 10 nM,"CCCC[C@H](NC(=O)O[C@@H]1CN(C(=O)Nc2ccc(C(F)(F)F)cc2)CC1(C)C)C(=O)C(=O)N[C@H](C)c1ccccc1 [Example 70, (3S)-4,4-Dimethyl-1-{[4-(trifluoromethyl)anilino]carbonyl}pyrrolidinyl (1S)-1-(oxo {[(1R)-1-phenylethyl]amino}acetyl)pentylcarbamate]"
6,10 to 100 nM,"CCCC[C@H](NC(=O)O[C@@H]1CN(C(=O)c2cc3ccccc3n2C)CC1(C)C)C(=O)C(=O)N[C@H](C)c1ccccc1 [Example 28, (3S)-4,4-Dimethyl-1-[(1-methyl-1H-indol-2-yl)carbonyl]pyrrolidinyl (1S)-1-(oxo{[(1R)-1-phenylethyl]amino}acetyl)pentylcarbamate]"
7,10 to 100 nM,"CCCCC(NC(=O)O[C@@H]1COCC1(C)C)C(=O)C(=O)N[C@H](C)c1ccccc1 (stereo partly drawn) [Example 83, (3S)-4,4-Dimethyltetrahydro-3-furanyl 1-(oxo{[(1R)-1-phenylethyl]amino}acetyl)pentylcarbamate]"
8,1 to 10 nM,CCCC[C@H](NC(=O)O[C@@H]1CN(C(=O)c2ccno2)CC1(C)C)C(=O)C(=O)N[C@H](C)c1ccccc1 [Example 12]
9,10 to 100 nM,"CCCC[C@H](NC(=O)O[C@@H]1CN(C(=O)Nc2c(C)noc2C)CC1(C)C)C(=O)C(=O)N[C@H](C)c1ccccc1 [Example 67, (3S)-1-{[(3,5-Dimethyl-4-isoxazolyl)amino]carbonyl}-4,4-dimethylpyrrolidinyl (1S)-1-(oxo{[(1R)-1-phenylethyl]amino}acetyl)pentylcarbamate]"
10,10 to 100 nM,"CCCC[C@H](NC(=O)O[C@@H]1CN(S(=O)(=O)c2ccc3c(c2)OCO3)CC1(C)C)C(=O)C(=O)N[C@H](C)c1ccccc1 [Example 79, (3S)-1-(1,3-Benzodioxol-5-ylsulfonyl)-4,4-dimethylpyrrolidinyl (1S)-1-(oxo{[(1R)-1-phenylethyl]amino}acetyl)pentylcarbamate]"
11,10 to 100 nM,"CCCC[C@H](NC(=O)OC1C(=O)N(C(=O)OCc2ccccc2)CC1(C)C)C(=O)C(=O)N[C@H](C)c1ccccc1 (stereo partly drawn) [Example 5, Benzyl 4,4-dimethyl-2-oxo-3-[({[(1S)-1-(oxo{[(1R)-1-phenylethyl]amino}acetyl)pentyl]amino}carbonyl)oxy]-1-pyrrolidinecarboxylate]"
